Assay results from patent US8188148B2, “Substituted 1,3-diphenylpropane derivatives, preparations and uses thereof” (Genfit, priority 2006, dated 2012).

Assays:
[1] = test system: PPARs target genes (PDK4, ApoCIII); assay: Hepatic gene expression by quantitative RT-PCR in C57BI6 mouse; assay type: in vivo; details: C57BI6 mouse, 3, 10, and 30 mpk, 14 days, normalized to 36B4
Procedure: The effectiveness of the compounds according to the invention is also evaluated by measuring, in hepatic tissue, the expression of the genes involved in lipid metabolism. Each level of gene expression is normalized regarding the expression level of the reference gene 36B4. The induction factor is then calculated. The higher the induction factor is, the more the compound promotes hepatic gene expression. […]
Total RNA was extracted from liver fragments by using a NucleoSpin® 96 RNA kit (Macherey Nagel, Hoerdt, France) according to the manufacturer's instructions. 1 μg of total RNA (quantified by spectrophotometry) was then reverse-transcripted into cDNA by means of a 1 hour reaction at 37° C. in a total volume of 20 μl containing a 1× buffer (Sigma), 1.5 mM of DTT, 0.18 mM of dNTPs (Promega), 200 ng of pdN6 (Amersham), 30 U of RNase inhibitor (Sigma), and 1 μl of MMLV-RT (Sigma).
The PCR quantitative experiments were carried out using the MyiQ Single-Color Real-Time PCR Detection System (Biorad, Marnes-la-Coquette, France) and were performed using the iQ SYBR Green Supermix kit according to the provider's recommendations, in 96-well plates in 5 μl of a diluted reverse transcription solution and at a hybridization temperature of 55° C. […]
The amount of fluorescence emitted is directly proportional to the amount of cDNA present at the beginning of the reaction and amplified during the PCR. […]

[2] = test system: PPARs target genes (PDK4, UCP2); assay: Hepatic and skeletal muscle gene expression by quantitative RT-PCR in db/db mouse; assay type: in vivo; details: 50 mpk, 28 days
Procedure: The effectiveness of the compounds according to the invention is also evaluated by measuring, in the hepatic and muscular (skeletal) tissues, the expression of genes involved in lipid and/or glucid metabolism and in energy dissipation. Each level of gene expression is normalized regarding the expression level of the reference gene 36B4 in the hepatic tissue, or regarding the expression level of the reference gene 18S in the gastrocnemius skeletal muscle. The induction factor, i.e. the ratio between the relative signal (induced by the compound according to the invention) and the average of the relative values obtained with the control group, is then calculated. The higher the induction factor is, the more the greater the compound promotes gene expression. The final result is represented as the average of the induction values obtained with each experimental group. • FIG. 4-8: Expression of PDK4 in the hepatic tissue of the db/db mouse, after 28 days of treatment with compound 1 and compound 3, administered at 50 mpk • FIG. 4-9: Expression of UCP2 (uncoupling protein 2) in the skeletal muscle tissue of the db/db mouse, after 28 days of treatment with compound 1 and compound 3, administered at 50 mpk
Total RNA was extracted from liver fragments by using a NucleoSpin® 96 RNA kit (Macherey Nagel, Hoerdt, France) according to the manufacturer's instructions.
Total RNA was extracted from gastrocnemius skeletal muscle fragments by using a RNeasy® Fibrous Tissue kit (Qiagen) according to the manufacturer's instructions.
1 μg of total RNA (quantified by spectrophotometry) was then reverse-transcripted into complementary DNA by means of a 1 hour reaction at 37° C. in a total volume of 20 μl containing a 1× buffer (Sigma), 1.5 mM of DTT, 0.18 mM of dNTPs (Promega), 200 ng of pdN6 (Amersham), 30 U of RNase inhibitor (Sigma), and 1 μl of MMLV-RT (Sigma).
The PCR quantitative experiments were carried out using the MyiQ Single-Color Real-Time PCR Detection System (Biorad, Marnes-la-Coquette, France) and were performed using the iQ SYBR Green Supermix kit according to the provider's recommendations, in 96-well plates in 5 μl of a diluted reverse-transcription solution at a hybridization temperature of 55° C. The specific primer pairs of the genes being studied were used:
The amount of fluorescence emitted is directly proportional to the amount of complementary DNA present at the beginning of the reaction and amplified during the PCR. For each target studied, a range of solutions is performed with successive dilutions of mixtures of a few microliters of different reverse-transcription solutions. The relative levels of expression of each target are thus determined by using efficiency curves obtained with the points relative to the range of PCR solutions. […]

With `Cc1cc(CCC(=O)c2ccc(OC(F)(F)F)cc2)cc(C)c1OC(C)(C)C(=O)O` [Compound 1, 2-[2,6-dimethyl-4-[3-[4-(trifluoromethyloxy)phenyl]-3-oxo-propyl]phenoxy]-2-methyl-propanoic acid] the “hepatic expression of the gene coding for ApoCIII” value [1] was “reduction”, the “hepatic expression of the gene coding for PDK4” value [1] was “significant increase” and the “expression of the gene coding for UCP2 in the skeletal muscle” value ([2]; gastrocnemius skeletal muscle) was “reduction”. The “hepatic expression of the gene coding for PDK4” value ([2]; hepatic tissue) was “significant increase”.
